Data as given in article PMC11396129, “Oxindole–benzothiazole hybrids as CDK2 inhibitors and anticancer agents: design, synthesis and biological evaluation” (BMC Chemistry, 2024).

Tests used:
[1] = system: NCI 60 cancer cell line panel; assay: NCI 60 panel growth inhibition (SRB), whole panel; format: cell-based, human; conditions: mean over NCI 60 panel, 10 μM
Method in brief: (§1)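 Selected compounds progressed from a single-dose mean-graph screen to five-concentration testing. Percentage growth, with negative values indicating cell kill below Tz, was computed per level, giving TGI among three parameters.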

NCI-H23 = assay: NCI 60 panel growth inhibition (SRB), non-small cell lung cancer; format: cell-based, human; conditions: NCI-H23, 10 μM
Method in brief: as §1

NCI-H226 = assay: as above; format: cell-based, human; conditions: NCI-H226, 10 μM
Method in brief: as §1

NCI-H522 = assay: as above; format: cell-based, human; conditions: NCI-H522, 10 μM
Method in brief: as §1

EKVX = assay: as above; format: cell-based, human; conditions: 10 μM
Method in brief: as §1

NCI-H460 = assay: as above; format: cell-based, human; conditions: NCI-H460, 10 μM
Method in brief: as §1

HOP-62 = assay: as above; format: cell-based, human; conditions: HOP-62, 10 μM
Method in brief: as §1

NCI-H322M = assay: as above; format: cell-based, human; conditions: 10 μM
Method in brief: as §1

HOP-92 = assay: as above; format: cell-based, human; conditions: HOP-92, 10 μM
Method in brief: as §1

A549/ATCC = assay: as above; format: cell-based, human; conditions: 10 μM
Method in brief: as §1

U251 = assay: NCI 60 panel growth inhibition (SRB), CNS cancer; format: cell-based, human; conditions: U251, 10 μM
Method in brief: as §1

SF-268 = assay: NCI 60 panel growth inhibition (SRB), CNS cancer; format: cell-based, human; conditions: SF-268, 10 μM
Method in brief: as §1

SF-295 = assay: NCI 60 panel growth inhibition (SRB), CNS cancer; format: cell-based, human; conditions: SF-295, 10 μM
Method in brief: as §1

SF-539 = assay: NCI 60 panel growth inhibition (SRB), CNS cancer; format: cell-based, human; conditions: SF-539, 10 μM
Method in brief: as §1

SNB-75 = assay: NCI 60 panel growth inhibition (SRB), CNS cancer; format: cell-based, human; conditions: SNB-75, 10 μM
Method in brief: as §1

SNB-19 = assay: NCI 60 panel growth inhibition (SRB), CNS cancer; format: cell-based, human; conditions: SNB-19, 10 μM
Method in brief: as §1

SK-OV-3 = assay: NCI 60 panel growth inhibition (SRB), ovarian cancer; format: cell-based, human; conditions: SK-OV-3, 10 μM
Method in brief: as §1

OVCAR-8 = assay: as above; format: cell-based, human; conditions: OVCAR-8, 10 μM
Method in brief: as §1

NCI/ADR-RES = assay: as above; format: cell-based, human; conditions: 10 μM
Method in brief: as §1

OVCAR-4 = assay: as above; format: cell-based, human; conditions: OVCAR-4, 10 μM
Method in brief: as §1

OVCAR-5 = assay: as above; format: cell-based, human; conditions: OVCAR-5, 10 μM
Method in brief: as §1

OVCAR-3 = assay: as above; format: cell-based, human; conditions: OVCAR-3, 10 μM
Method in brief: as §1

IGROV1 = assay: as above; format: cell-based, human; conditions: IGROV1, 10 μM
Method in brief: as §1

SW-620 = assay: NCI 60 panel growth inhibition (SRB), colon cancer; format: cell-based, human; conditions: SW-620, 10 μM
Method in brief: as §1

HCC-2998 = assay: NCI 60 panel growth inhibition (SRB), colon cancer; format: cell-based, human; conditions: HCC-2998, 10 μM
Method in brief: as §1

KM12 = assay: NCI 60 panel growth inhibition (SRB), colon cancer; format: cell-based, human; conditions: KM12, 10 μM
Method in brief: as §1

HCT-116 = assay: NCI 60 panel growth inhibition (SRB), colon cancer; format: cell-based, human; conditions: HCT-116, 10 μM
Method in brief: as §1

HS 578T = assay: NCI 60 panel growth inhibition (SRB), breast cancer; format: cell-based, human; conditions: 10 μM
Method in brief: as §1

MDA-MB-231/ATCC = assay: as above; format: cell-based, human; conditions: 10 μM
Method in brief: as §1

MCF7 = assay: as above; format: cell-based, human; conditions: MCF7, 10 μM
Method in brief: as §1

BT-549 = assay: as above; format: cell-based, human; conditions: BT-549, 10 μM
Method in brief: as §1

MDA-MB-468 = assay: as above; format: cell-based, human; conditions: MDA-MB-468, 10 μM
Method in brief: as §1

T-47D = assay: as above; format: cell-based, human; conditions: 10 μM
Method in brief: as §1

Row | SMILES | Mean GI% [1] | GI% (NCI-H23) | GI% (NCI-H226) | GI% (NCI-H522) | GI% (EKVX) | GI% (NCI-H460) | GI% (HOP-62) | GI% (NCI-H322M) | GI% (HOP-92) | GI% (A549/ATCC) | GI% (U251) | GI% (SF-268) | GI% (SF-295) | GI% (SF-539) | GI% (SNB-75) | GI% (SNB-19) | GI% (SK-OV-3) | GI% (OVCAR-8) | GI% (NCI/ADR-RES) | GI% (OVCAR-4) | further results
1 | COc1cccc(-c2nc3ccccc3s2)c1OCC(=O)NN=C1C(=O)Nc2ccc(C)cc21 [Compound 9h, 2-(2-(Benzo[d]thiazol-2-yl)-6-methoxyphenoxy)-N′-(5-methyl-2-oxoindolin-3-ylidene)acetohydrazide] | 9.27% | 13.40% | 26.01% | – (GI% < 5%) | 27.92% | – (GI% < 5%) | – (GI% < 5%) | 6.24% | 23.13% | 24.44% | 5.89% | – (GI% < 5%) | 19.06% | 9.04% | – (GI% < 5%) | 8.33% | 14.52% | 12.04% | 14.65% | 20.46% | GI% (OVCAR-5): – (GI% < 5%); GI% (OVCAR-3): – (GI% < 5%); GI% (IGROV1): 6.64%; GI% (SW-620): – (GI% < 5%); GI% (HCC-2998): – (GI% < 5%); GI% (KM12): 8.90%; GI% (HCT-116): 22.91%; GI% (HS 578T): 9.01%; GI% (MDA-MB-231/ATCC): 13.89%; GI% (MCF7): 37.74%; GI% (BT-549): 18.44%; GI% (MDA-MB-468): 26.10%; GI% (T-47D): 41.06%; melting point: 244 to 246 °C
2 | COc1ccc2c(c1)C(=NNC(=O)COc1c(OC)cccc1-c1nc3ccccc3s1)C(=O)N2 [Compound 9i, 2-(2-(Benzo[d]thiazol-2-yl)-6-methoxyphenoxy)-N′-(5-methoxy-2-oxoindolin-3-ylidene)acetohydrazide] | 6.32% | 11.65% | 29.04% | 7.04% | 24.10% | – (GI% < 5%) | – (GI% < 5%) | 5.89% | 31.66% | 18.26% | – (GI% < 5%) | – (GI% < 5%) | 13.86% | 6.47% | – (GI% < 5%) | 11.58% | 9.98% | 11.59% | 10.58% | 20.14% | GI% (OVCAR-5): – (GI% < 5%); GI% (OVCAR-3): – (GI% < 5%); GI% (IGROV1): – (GI% < 5%); GI% (SW-620): – (GI% < 5%); GI% (HCC-2998): – (GI% < 5%); GI% (KM12): 8.46%; GI% (HCT-116): 17.55%; GI% (HS 578T): – (GI% < 5%); GI% (MDA-MB-231/ATCC): 10.30%; GI% (MCF7): 23.12%; GI% (BT-549): 16.10%; GI% (MDA-MB-468): 30.66%; GI% (T-47D): 37.57%; melting point: 144 to 146 °C
